# Reference: patent US8912220B2 (priority 2009, dated 2014)
# pEC50: −log10 of the molar value.
# Biological target: human 5-HT2C(VSV) (Homo sapiens, UniProt P28335, I156V/I160V/N158S)
# Assay: cell-based
# human 5-HT2C(VSV), sequence (P28335 33-458 I156V/N158S/I160V limits assumed): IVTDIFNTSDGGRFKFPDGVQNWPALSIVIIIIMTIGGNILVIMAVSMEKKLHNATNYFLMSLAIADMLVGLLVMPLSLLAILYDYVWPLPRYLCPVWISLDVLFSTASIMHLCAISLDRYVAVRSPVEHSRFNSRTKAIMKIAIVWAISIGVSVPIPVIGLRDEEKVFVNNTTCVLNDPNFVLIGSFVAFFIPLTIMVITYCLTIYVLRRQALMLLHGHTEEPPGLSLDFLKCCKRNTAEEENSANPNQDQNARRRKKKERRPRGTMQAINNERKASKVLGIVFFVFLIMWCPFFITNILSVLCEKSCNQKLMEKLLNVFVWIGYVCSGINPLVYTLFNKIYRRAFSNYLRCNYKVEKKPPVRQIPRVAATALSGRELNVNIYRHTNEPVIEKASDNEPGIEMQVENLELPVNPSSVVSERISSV
row,SMILES,pEC50
1,"Cc1cccc(CNCCc2cn(C)c3ccc(F)c(O)c23)n1 [17-20, 5-fluoro-1-methyl-3-(2-(((6-methylpyridin-2-yl)methyl)amino)ethyl)-1H-indol-4-ol]",> 5.00
2,"CN(C)CCc1cn(C)c2ccc(F)c(OCCc3ccccc3)c12 [18-2, 2-(5-fluoro-1-methyl-4-phenethoxy-1H-indol-3-yl)-N,N-dimethylethanamine]",6.30 to 9.00
3,"CCCn1cc(CCN)c2c(OCc3ccc(Cl)cc3)c(F)ccc21 [18-3, 2-(4-(4-chlorobenzyloxy)-5-fluoro-1-propyl-1H-indol-3-yl)ethanamine]",> 5.00
4,"NCCc1cn(CC2CCCCO2)c2ccc(F)c(O)c12 (centres unmarked) [19-3, 3-(2-Aminoethyl)-5-fluoro-1-((tetrahydro-2H-pyran-2-yl)methyl)-1H-indol-4-ol]",6.30 to 9.00
5,"NCCc1cn(CCOc2ccccc2)c2ccc(F)c(O)c12 [19-4, 3-(2-aminoethyl)-5-fluoro-1-(2-phenoxyethyl)-1H-indol-4-ol]",6.30 to 9.00
6,"NCCc1cn(CC2COc3ccccc3O2)c2ccc(F)c(O)c12 (centres unmarked) [19-5, 3-(2-aminoethyl)-1-((2,3-dihydrobenzo[b][1,4]dioxin-2-yl)methyl)-5-fluoro-1H-indol-4-ol]",6.30 to 9.00
7,"CCN(CC)C(=O)Cn1cc(CCN)c2c(O)c(F)ccc21 [19-6, 2-(3-(2-aminoethyl)-5-fluoro-4-hydroxy-1H-indol-1-yl)-N,N-diethylacetamide]",> 5.00
8,"NCCc1cn(CC(N)=O)c2ccc(F)c(O)c12 [19-7, 2-(3-(2-aminoethyl)-5-fluoro-4-hydroxy-1H-indol-1-yl)acetamide]",> 5.00
9,"CCn1cc(CCNCc2ccccc2)c2c(OC)ccc(F)c21 [20-4, N-benzyl-2-(1-ethyl-7-fluoro-4-methoxy-1H-indol-3-yl)ethanamine]",6.30 to 9.00
10,"CCn1cc(CCNCCc2ccccc2)c2c(OC)ccc(F)c21 [20-7, 2-(1-ethyl-7-fluoro-4-methoxy-1H-indol-3-yl)-N-phenethylethanamine]",6.30 to 9.00
11,"CCn1cc(CCNC(C)c2ccccc2)c2c(OC)ccc(F)c21 (centres unmarked) [20-8, 2-(1-ethyl-7-fluoro-4-methoxy-1H-indol-3-yl)-N-(1-phenylethyl)ethanamine]",6.30 to 9.00
12,"CCn1cc(CCNCc2ccccc2C)c2c(OC)ccc(F)c21 [20-9, 2-(1-ethyl-7-fluoro-4-methoxy-1H-indol-3-yl)-N-(2-methylbenzyl)ethanamine]",6.30 to 9.00
13,"CCn1cc(CCNCc2ccccc2Cl)c2c(OC)ccc(F)c21 [20-10, N-(2-chlorobenzyl)-2-(1-ethyl-7-fluoro-4-methoxy-1H-indol-3-yl)ethanamine]",6.30 to 9.00
14,"CNCCc1cn(C)c2c(F)cc(-c3ccccc3)c(OC)c12 [22-5, 2-(7-fluoro-4-methoxy-1-methyl-5-phenyl-1H-indol-3-yl)-N-methylethanamine]",6.30 to 9.00
15,"CNCCc1cn(C)c2c(F)cc(CCc3ccccc3)c(OC)c12 [23-4, 2-(7-fluoro-4-methoxy-1-methyl-5-phenethyl-1H-indol-3-yl)-N-methylethanamine]",5.00 to 6.30
16,"CNCCc1cn(C)c2c(F)cc(CCC3CCCCC3)c(OC)c12 [23-5, 2-(5-(2-cyclohexylethyl)-7-fluoro-4-methoxy-1-methyl-1H-indol-3-yl)-N-methylethanamine]",6.30 to 9.00
17,"CN(C)CCc1cn(Cc2ccco2)c2c(F)ccc(OCc3ccccc3)c12 [24-1, 2-(4-(benzyloxy)-7-fluoro-1-(furan-2-ylmethyl)-1H-indol-3-yl)-N,N-dimethylethanamine]",6.30 to 9.00
18,"COc1ccc(S(=O)(=O)c2ccccc2)c2c1c(CCN(C)C)cn2C [25-1, 2-(4-methoxy-1-methyl-7-(phenylsulfonyl)-1H-indol-3-yl)-N,N-dimethylethanamine]",6.30 to 9.00

row,SMILES,pEC50
1,"COC(=O)/C=C/c1ccc(OC)c2c(CCN(C)C)cn(C)c12 [25-2, (E)-methyl 3-(3-(2-(dimethylamino)ethyl)-4-methoxy-1-methyl-1H-indol-7-yl)acrylate]",6.30 to 9.00
2,"COc1ccc(CCCO)c2c1c(CCN(C)C)cn2C [25-4, 3-(3-(2-(dimethylamino)ethyl)-4-methoxy-1-methyl-1H-indol-7-yl)propan-1-ol]",5.00 to 6.30
3,"CCn1cc(CCNCc2ccccc2)c2c(OCc3ccccc3)cc(F)cc21 [26-7, N-benzyl-2-(4-(benzyloxy)-1-ethyl-6-fluoro-1H-indol-3-yl)ethanamine]",5.00 to 6.30
4,"CCn1cc(CCNCc2ccccc2)c2c(O)cc(F)cc21 [26-8, 3-(2-(benzylamino)ethyl)-1-ethyl-6-fluoro-1H-indol-4-ol]",6.30 to 9.00
5,"CCn1cc(CCNCCc2ccccc2)c2c(OCc3ccccc3)cc(F)cc21 [26-9, 2-(4-(benzyloxy)-1-ethyl-6-fluoro-1H-indol-3-yl)-N-phenethylethanamine]",5.00 to 6.30
6,"CCn1cc(CCNCCc2cccc(C(F)(F)F)c2)c2c(O)cc(F)cc21 [26-10, 1-ethyl-6-fluoro-3-(2-(3-(trifluoromethyl)phenethylamino)ethyl)-1H-indol-4-ol]",6.30 to 9.00
7,"CCn1cc(CCNCCc2ccccc2)c2c(O)cc(F)cc21 [26-11, 1-ethyl-6-fluoro-3-(2-(phenethylamino)ethyl)-1H-indol-4-ol]",6.30 to 9.00
8,"CCn1cc(CCN(C)C)c2c(OC)c(CCCO)cc(F)c21 [27-3, 3-(3-(2-(dimethylamino)ethyl)-1-ethyl-7-fluoro-4-methoxy-1H-indol-5-yl)propan-1-ol]",6.30 to 9.00
9,"CCn1cc(CCN(C)C)c2c(OC)c(CCCN)cc(F)c21 [28-4, 3-(3-(2-(dimethylamino)ethyl)-1-ethyl-7-fluoro-4-methoxy-1H-indol-5-yl)propan-1-amine]",6.30 to 9.00
10,"CCn1cc(CCN(C)C)c2c(OC)c(CCc3nc4ccccc4[nH]3)cc(F)c21 [29-4, 2-(5-(2-(1H-benzo[d]imidazol-2-yl)ethyl)-1-ethyl-7-fluoro-4-methoxy-1H-indol-3-yl)-N,N-dimethylethanamine]",6.30 to 9.00
11,"CCOc1c(F)ccc2c1c(CCNCc1ccccc1)cn2C [30-15, N-benzyl-2-(4-ethoxy-5-fluoro-1-methyl-1H-indol-3-yl)ethanamine]",6.30 to 9.00
12,"CCOc1c(F)ccc2c1c(CCNC1Cc3ccccc3C1)cn2C [30-16, N-(2-(4-ethoxy-5-fluoro-1-methyl-1H-indol-3-yl)ethyl)-2,3-dihydro-1H-inden-2-amine]",6.30 to 9.00
13,"CCOc1c(F)ccc2c1c(CCNCc1ccccc1Cl)cn2C [30-17, N-(2-chlorobenzyl)-2-(4-ethoxy-5-fluoro-1-methyl-1H-indol-3-yl)ethanamine]",6.30 to 9.00
14,"CCOc1c(F)ccc2c1c(CCNCc1ccc3c(c1)OCO3)cn2C [30-18, N-(benzo[d][1,3]dioxol-5-ylmethyl)-2-(4-ethoxy-5-fluoro-1-methyl-1H-indol-3-yl)ethanamine]",6.30 to 9.00
15,"CCOc1c(F)ccc2c1c(CCNC1CCc3ccccc31)cn2C (centres unmarked) [30-19, N-(2-(4-ethoxy-5-fluoro-1-methyl-1H-indol-3-yl)ethyl)-2,3-dihydro-1H-inden-1-amine]",6.30 to 9.00
16,"CCOc1c(F)ccc2c1c(CCNCc1cccc(C)c1)cn2C [30-20, 2-(4-ethoxy-5-fluoro-1-methyl-1H-indol-3-yl)-N-(3-methylbenzyl)ethanamine]",6.30 to 9.00
17,"CCOc1c(F)ccc2c1c(CCNCc1ccccc1C(F)(F)F)cn2C [30-21, 2-(4-ethoxy-5-fluoro-1-methyl-1H-indol-3-yl)-N-(2-(trifluoromethyl)benzyl)ethanamine]",6.30 to 9.00
